The nature of data set [1]: Moisture sorption analysis (dynamic vapor sorption, DVS). The following applies: for hygroscopic behaviour: DVS, 0 to 95% RH at 25° C.; for loss of hydration water at low relative humidity: RH of 20% or less. It is filed as physicochemical. The method, then:
The moisture sorption analysis (DVS) was performed using a Surface Measurement Systems Advantage-1 dynamic vapor sorption apparatus. The moisture profile was evaluated by monitoring vapor adsorption/desorption over the range of 0 to 95% relative humidity at 25° C. The moisture profile consisted of 2 cycles of vapor adsorption/desorption.

The nature of data set [2]: Physical stability study with respect to water loss or uptake (water content by coulometric Karl Fischer). It counts as physicochemical. The method, then:
The physical stability of Compound A monohydrate, Form III with respect to water loss or uptake was tested.
For the initial study, 0.5 g samples of monohydrate Form III were placed in double antistatic colourless LDPE bags and sealed.
For the long-term study (stability after 1 month and 3 months), 1.5 g samples of monohydrate Form III were placed in double antistatic colourless LDPE bags and sealed. The samples were stored at 30±2° C./75±5% RH and 40±2° C./75±5% RH in cardboard drums.
For the photostability study, 1.5 g of monohydrate Form III was placed into a petri dish and spread into a layer of no more than 3 mm thick. The petri dish was covered with quartz coverslips and sealed with parafilm. The photostability testing was carried out in line with ICH Q1B option 2 (ICH Harmonised Tripartite Guideline, Stability testing: Photostability testing of new drug substances and products, Q1B, Step 4 version, 6 Nov. 1996). Photostability samples were stored under separate lamps emitting visible and UV-A light, such that the total exposure was not less than 1.2 million lux hours and 200 Watt hours/m^2, respectively.
The water content of each of the samples was determined using a vaporized coulometric Karl Fischer method, in accordance with the US Pharmacopeia (USP <921> method IC; most recently appeared in Pharmacopeial Forum: Volume No. 38(1); Page information USP42/NF37-7092) and European Pharmacopeia 2.5.32 (Edition 10.0).

Entries after “also recorded” stand apart in the source; their conditions may differ.

For the molecule `O=C(Nc1ccnc(C(F)(F)F)c1)c1cnn(-c2cccc3c(=O)[nH]ccc23)c1C(F)(F)F` [Form I, 1-(1-oxo-1,2-dihydroisoquinolin-5-yl)-5-(trifluoromethyl)-N-[2-(trifluoromethyl)pyridin-4-yl]-1H-pyrazole-4-carboxamide (Compound A) hydrate, Form I], in data set [1], the hygroscopic behaviour result was “hygroscopic”; the “loss of hydration water at low relative humidity” value was “lost at RH of 20% and less”. In addition, the “solid-state form change after the DVS test (XRPD pattern and IR spectrum)” value in data set [1] (fraction obtained after the DVS test vs starting material) is given as “No indication of a solid-state form change”. For the same molecule, in data set [1] (humidity range 0-20% RH), the moisture adsorbed was 4.1-4.2%. Also, in data set [1] (humidity range 20-95% RH, slow and reversible), the “moisture adsorption and desorption” value came out at 1.8%. The “weight loss during the initial drying step (DVS change in mass plot)” value in data set [1] (initial drying step) is roughly 2.7%.
As for `O=C(Nc1ccnc(C(F)(F)F)c1)c1cnn(-c2cccc3c(=O)[nH]ccc23)c1C(F)(F)F` [Form III, 1-(1-oxo-1,2 dihydroisoquinolin-5-yl)-5-(trifluoromethyl)-N-(2-(trifluoromethyl)pyridin-4-yl)-1H-pyrazole-4-carboxamide (Compound A) monohydrate], the “Water content (%)” value in data set [2] (30° C./75% RH, 1 month) is 3.3%; in data set [2] (30° C./75% RH, 3 months), 3.8%; in data set [2] (40° C./75% RH, 1 month), 3.3%; in data set [2] (40° C./75% RH, 3 months), 3.2%; in data set [2] (Initial), 3.4%; in data set [2] (photostability, 1 × ICH option 2), 3.4%. Further, the “hygroscopic character concluded from the stability study” value in data set [2] (Table 3 storage conditions) is listed as “non-hygroscopic”. For the same molecule, in data set [1] (monohydrate), the hygroscopic behaviour entry is “non-hygroscopic”. Further, the “loss of hydration water at low relative humidity” value in data set [1] (monohydrate) is reported as “does not lose water; also recorded: avoids loss of water”. Further, the water uptake result in data set [1] (at 80% relative humidity) was “less than 0.2%”.

The values are drawn from patent US12269813B2, “Crystalline form of 1-(1-oxo-1,2-dihydroisoquinolin-5-yl)-5-(trifluoromethyl)-N-(2-(trifluoromethyl)pyridin-4-yl)-1H-pyrazole-4-carboxamide monohydrate” (Janssen Pharmaceutica NV, priority 2019, dated 2025).
